*1 amine or outer side, *2 acyl side, *3 side chain or, on linkers, in order; H or OH if unused. Where a SMILES comes first, the peptide text is derived from it. [ ]: non-standard residue; d: D form. The star is where a group is joined. GluureaLys(ε-3-ClBenzyl) = O=C(O)CC[C@H](NC(=O)N[C@@H](CCCCN(Cc1cccc(Cl)c1)*)C(=O)O)C(=O)O; X5 = O=C(O)CC[C@H](NC(=O)N[C@@H](CCCCN(Cc1ccc(C(=O)O)cc1)*)C(=O)O)C(=O)O; X6 = O=C(O)CC[C@H](NC(=O)N[C@@H](CCCCN(Cc1ccc(Br)cc1)*)C(=O)O)C(=O)O; Dolaproine = CO[C@@H]([C@@H]1CCCN1)[C@@H](C)C(=O)O; Dil = CC[C@H](C)[C@H](NC)[C@@H](CC(=O)O)OC; X2 = O=C(CCCc1cn(CCCN[*:1])nn1)[*:2]; PABC = O=C(OCc1ccc(N[*:1])cc1)[*:2]; X1 = C[C@@H](N*)[C@@H](O)c1ccccc1; Cit = NC(=O)NCCC[C@H](N)C(=O)O; Suc = O=C(CCC(=O)[*:2])[*:1]; NMeV = CN[C@H](C(=O)O)C(C)C; Ahx = NCCCCCC(=O)O
Tests used:
[1] = target: T1, PSMA (glutamate carboxypeptidase II, GCPII) (Homo sapiens, UniProt Q04609); assay: Inhibition of the NAAG cleavage reaction (affinity to PSMA), LNCaP cell extract; assay type: biochemical; conditions: SD
T1 construct: endogenous in cells; host or cells: LNCaP cells (Triton X-100 lysate, sonicated, supernatant after 1000g)
T1 sequence (Q04609 whole entry): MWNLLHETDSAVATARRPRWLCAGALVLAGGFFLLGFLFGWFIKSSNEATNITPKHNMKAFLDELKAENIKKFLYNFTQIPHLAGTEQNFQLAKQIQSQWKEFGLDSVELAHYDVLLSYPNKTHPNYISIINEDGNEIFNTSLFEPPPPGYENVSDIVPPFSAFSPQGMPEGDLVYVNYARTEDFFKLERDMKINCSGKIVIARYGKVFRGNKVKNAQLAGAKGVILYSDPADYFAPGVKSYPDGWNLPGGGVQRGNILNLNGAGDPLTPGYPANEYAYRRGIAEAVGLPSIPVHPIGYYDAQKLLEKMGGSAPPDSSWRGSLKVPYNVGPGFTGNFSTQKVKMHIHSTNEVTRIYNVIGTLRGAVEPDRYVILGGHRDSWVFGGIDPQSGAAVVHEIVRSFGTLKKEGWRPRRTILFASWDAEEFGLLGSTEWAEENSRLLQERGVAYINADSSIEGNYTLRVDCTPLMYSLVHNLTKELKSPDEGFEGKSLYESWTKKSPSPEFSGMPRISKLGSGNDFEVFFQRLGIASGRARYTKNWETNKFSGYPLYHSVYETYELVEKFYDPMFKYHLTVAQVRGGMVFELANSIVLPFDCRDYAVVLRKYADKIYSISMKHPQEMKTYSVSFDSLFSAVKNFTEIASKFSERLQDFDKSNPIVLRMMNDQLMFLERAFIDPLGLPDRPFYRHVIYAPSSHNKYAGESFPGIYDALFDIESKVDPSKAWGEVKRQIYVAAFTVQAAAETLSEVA
Experimental: The affinity of the four newly obtained ligands to PSMA was evaluated in vitro by inhibiting the cleavage of N-acetylaspartylglutamic acid (NAAG). One function of PSMA, also known as glutamate carboxypeptidase II (GCPII), is the cleavage of NAAG into N-acetylaspartate and glutamate. PSMA-specific ligands inhibit this reaction by interacting with the protein. Thus, the calculation of the values of half-maximum inhibition (IC50) allows evaluation of the binding efficiency of the synthesized compounds to the protein. The analogues of the obtained ligands 6a–d without a lysine residue in their structure were chosen as comparison ligands. Also, some ligands previously described in the literature were chosen as references.
LNCaP cells were cultured in RPMI medium with 10% FBS (Gibco, Billings, MT, USA), 1xGlutamax (Gibco) and 1x penicillin-streptomycin mixture (Gibco, USA). To suspend the cells, growth medium was removed from the 25 cm^2 vial, the cells were washed with PBS buffer and incubated for 5 min with 0.25% trypsin (1 mL). Trypsin was inactivated with complete growth medium (2 mL), washed with PBS, transferred 10^6 cells to a test tube, and 500 μL of lysis buffer (0.5% Triton X-100, 50 mM Tris-HCl (pH 7.5) and 1× Proteinase Inhibition cocktail) was added. The suspension was incubated for 30 min on ice and sonicated (seven times 7 sec at 20–30 s intervals) on ice to avoid overheating. The suspension was centrifuged for 10 min at 1000g at 4 °C, and the supernatant was used in further analysis.
The inhibition by PSMA ligands was analyzed using a non-radioactive protocol with detection of the glutamate released during the reaction. LNCaP cell line extract (10 μL) was mixed with 2 μL of the appropriate compound preparation. A series of dilutions of 2 nM-100 μM compounds was used for initial testing, with dilution steps of 3–5 times. To the resulting mixture, 1 μL of 100 μM NAAG solution was added. The mixture was incubated for 2 h at 37 °C. After incubation, the mixture was doubled with reaction buffer (13 μL) from the Amplex Red Glutamic Acid Kit (Molecular Probes Inc., Eugene, OR, USA), and the multi-component glutamate detection reaction mixture prepared according to the manufacturer’s protocol (26 μL) was added. Amplex Red stock solution: 5 μL Amplex® Red reagent stock solution, 1.25 μL HRP stock solution, 8 μL L-glutamate oxidase, 2.5 μL L-glutamate pyruvate transaminase, 0.5 μL L-alanine, 483 μL 1× reaction buffer. Incubation was performed for 1 h at 37 °C. The fluorescence of resorufin produced by conjugated glutamate detection kit reactions was detected on a VICTORX5 multidetector plate (Perkin Elmer Inc., Waltham, MA, USA) at an excitation length of 555 nm and detection at 580 nm. As a control for endogenous glutamate levels with replacement of the NAAG solution with water.

LNCaP cells = assay: In vitro cytotoxicity, MTS assay, LNCaP; assay type: cell-based; conditions: 72 h, high PSMA expression, range 0.5 to 800 nM, triplicates
Experimental: (§1) The resulting bimodal conjugates were tested in vitro on three different PCa cell lines. We used LNCaP cells with high PSMA expression, 22Rv1 cells with moderate PSMA expression and PC-3 cells with extremely low PSMA expression. Different levels of PSMA expression in 22Rv1 and LNCaP cell lines allows evaluation of the effect of the level of expression on the toxicity of the target drugs. PSMA-negative cell line PC-3 allows a qualitative assessment of non-specific toxicity of the obtained compounds.
(§2) The cytotoxicity of the investigated substances was tested using the MTS assay with some modifications. Cells were seeded in the 96-well plates (Corning, New York, NY, USA) at concentration of 7000 cells per well for PC-3 culture, 12,000 cells per well for LNCaP cells and 20,000 cells per well for 22Rv1 line. The cells were counted using the automatic cell counter EVE. All cell lines were purchased from the American Type Culture Collection (ATCC, Manassas, VA, USA). After 1 day, serial dilutions of tested substances were added to the cells. Cell culture medium with addition of DMSO in appropriate concentrations was used as a negative control. DMSO (30%) was added in culture medium as a positive control. Cells were then incubated during 72 h at 37 °C and 5% CO2. Later, the culture medium from each well was removed and 20 μL of MTS reagent (CellTiter 96 AQueous Non-Radioactive Cell Proliferation Assay, Promega) were added to each well with 100 μL of new culture medium. After 4 h incubation at 37 °C in darkness, the absorbance of the solution was measured at 490 nm wavelength using Thermo Scientific Multiskan GO spectrometer. Cell viability was calculated as a percentage compared to control cells. The absorbance of MTS reagent in culture medium without cells was taken as zero. […] Experiments were performed in triplicates. Data were analyzed using Prism 9—GraphPad version 9.2.0 software. p values < 0.05 were considered significant.

22Rv1 cells = assay: In vitro cytotoxicity, MTS assay, 22Rv1; assay type: cell-based, human; conditions: 72 h, moderate PSMA expression, range 0.5 to 800 nM, triplicates
Experimental: as §1, §2

PC-3 cells = assay: In vitro cytotoxicity, MTS assay, PC-3; assay type: cell-based, human; conditions: 72 h, extremely low PSMA expression, range 0.5 to 800 nM, triplicates
Experimental: as §1, §2

[2] = inhibition of NAAG cleavage, LNCaP cell extract, 2 h at 37 °C, glutamate detected with Amplex Red kit (fluorescence)

Structure (SMILES)	IC50 [1]	IC50 [1, 2]	CC50, LNCaP (LNCaP cells)	CC50, 22Rv1 (22Rv1 cells)	CC50, PC-3 (PC-3 cells)
[N-]=[N+]=NCCCNC(=O)[C@H](CCCCN)NC(=O)[C@H](Cc1ccc(O)cc1)NC(=O)[C@H](Cc1ccccc1)NC(=O)CCC(=O)NCCCCCC(=O)N(CCCC[C@H](NC(=O)N[C@@H](CCC(=O)O)C(=O)O)C(=O)O)Cc1cccc(Cl)c1 [6a, (3S,7S,25S,28S,31S)-31-(4-aminobutyl)-36-azido-25-benzyl-12-(3-chlorobenzyl)-28-(4-hydroxybenzyl)-5,13,20,23,26,29,32-heptaoxo-4,6,12,19,24,27,30,33-octaazahexatriacontane-1,3,7-tricarboxylic acid]	13 ± 3 nM	–	–	–	–
[N-]=[N+]=NCCCNC(=O)[C@H](CCCCN)NC(=O)[C@H](Cc1ccc(O)cc1)NC(=O)[C@H](Cc1ccccc1)NC(=O)CCC(=O)NCCCCCC(=O)N(CCCC[C@H](NC(=O)N[C@@H](CCC(=O)O)C(=O)O)C(=O)O)Cc1ccc(Br)cc1 [6b, (3S,7S,25S,28S,31S)-31-(4-aminobutyl)-36-azido-25-benzyl-12-(4-bromobenzyl)-28-(4-hydroxybenzyl)-5,13,20,23,26,29,32-heptaoxo-4,6,12,19,24,27,30,33-octaazahexatriacontane-1,3,7-tricarboxylic acid]	11 ± 2 nM	–	–	–	–
[N-]=[N+]=NCCCNC(=O)[C@H](CCCCN)NC(=O)[C@H](Cc1ccc(O)cc1)NC(=O)[C@H](Cc1ccccc1)NC(=O)CCC(=O)NCCCCCC(=O)N(CCCC[C@H](NC(=O)N[C@@H](CCC(=O)O)C(=O)O)C(=O)O)Cc1ccc(C(=O)O)cc1 [6c, (3S,7S,25S,28S,31S)-31-(4-aminobutyl)-36-azido-25-benzyl-12-(4-carboxybenzyl)-28-(4-hydroxybenzyl)-5,13,20,23,26,29,32-heptaoxo-4,6,12,19,24,27,30,33-octaazahexatriacontane-1,3,7-tricarboxylic acid]	–	10 ± 3 nM	–	–	–
[N-]=[N+]=NCCCNC(=O)[C@H](CCCCN)NC(=O)[C@H](Cc1ccccc1)NC(=O)[C@H](Cc1ccccc1)NC(=O)CCC(=O)NCCCCCC(=O)N(CCCC[C@H](NC(=O)N[C@@H](CCC(=O)O)C(=O)O)C(=O)O)Cc1ccc(C(=O)O)cc1 [6d, (3S,7S,25S,28S,31S)-31-(4-aminobutyl)-36-azido-25,28-dibenzyl-12-(4-carboxybenzyl)-5,13,20,23,26,29,32-heptaoxo-4,6,12,19,24,27,30,33-octaazahexatriacontane-1,3,7-tricarboxylic acid]	–	5.5 ± 1.7 nM	–	–	–
CC[C@H](C)[C@@H]([C@@H](CC(=O)N1CCC[C@H]1[C@H](OC)[C@@H](C)C(=O)N[C@H](C)[C@@H](O)c1ccccc1)OC)N(C)C(=O)[C@@H](NC(=O)[C@H](C(C)C)N(C)C(=O)OCc1ccc(NC(=O)[C@H](CCCNC(N)=O)NC(=O)[C@@H](NC(=O)CCCc2cn(CCCNC(=O)[C@H](CCCCN)NC(=O)[C@H](Cc3ccc(O)cc3)NC(=O)[C@H](Cc3ccccc3)NC(=O)CCC(=O)NCCCCCC(=O)N(CCCC[C@H](NC(=O)N[C@@H](CCC(=O)O)C(=O)O)C(=O)O)Cc3cccc(Cl)c3)nn2)C(C)C)cc1)C(C)C [12a] ({GluureaLys(ε-3-ClBenzyl)-Ahx-Suc}-FYK[X2]V[Cit][PABC][NMeV]V[Dil][Dolaproine]-X1)	–	–	157.4 ± 2.0 nM	267.9 ± 3.8 nM	>800 nM
CC[C@H](C)[C@@H]([C@@H](CC(=O)N1CCC[C@H]1[C@H](OC)[C@@H](C)C(=O)N[C@H](C)[C@@H](O)c1ccccc1)OC)N(C)C(=O)[C@@H](NC(=O)[C@H](C(C)C)N(C)C(=O)OCc1ccc(NC(=O)[C@H](CCCNC(N)=O)NC(=O)[C@@H](NC(=O)CCCc2cn(CCCNC(=O)[C@H](CCCCN)NC(=O)[C@H](Cc3ccc(O)cc3)NC(=O)[C@H](Cc3ccccc3)NC(=O)CCC(=O)NCCCCCC(=O)N(CCCC[C@H](NC(=O)N[C@@H](CCC(=O)O)C(=O)O)C(=O)O)Cc3ccc(Br)cc3)nn2)C(C)C)cc1)C(C)C [12b] ({X6-Ahx-Suc}-FYK[X2]V[Cit][PABC][NMeV]V[Dil][Dolaproine]-X1)	–	–	182.6 ± 2.2 nM	247.8 ± 3.3 nM	>800 nM
CC[C@H](C)[C@@H]([C@@H](CC(=O)N1CCC[C@H]1[C@H](OC)[C@@H](C)C(=O)N[C@H](C)[C@@H](O)c1ccccc1)OC)N(C)C(=O)[C@@H](NC(=O)[C@H](C(C)C)N(C)C(=O)OCc1ccc(NC(=O)[C@H](CCCNC(N)=O)NC(=O)[C@@H](NC(=O)CCCc2cn(CCCNC(=O)[C@H](CCCCN)NC(=O)[C@H](Cc3ccc(O)cc3)NC(=O)[C@H](Cc3ccccc3)NC(=O)CCC(=O)NCCCCCC(=O)N(CCCC[C@H](NC(=O)N[C@@H](CCC(=O)O)C(=O)O)C(=O)O)Cc3ccc(C(=O)O)cc3)nn2)C(C)C)cc1)C(C)C [12c] ({X5-Ahx-Suc}-FYK[X2]V[Cit][PABC][NMeV]V[Dil][Dolaproine]-X1)	–	–	177.8 ± 2.2 nM	453.7 ± 9.8 nM	>800 nM
CC[C@H](C)[C@@H]([C@@H](CC(=O)N1CCC[C@H]1[C@H](OC)[C@@H](C)C(=O)N[C@H](C)[C@@H](O)c1ccccc1)OC)N(C)C(=O)[C@@H](NC(=O)[C@H](C(C)C)N(C)C(=O)OCc1ccc(NC(=O)[C@H](CCCNC(N)=O)NC(=O)[C@@H](NC(=O)CCCc2cn(CCCNC(=O)[C@H](CCCCN)NC(=O)[C@H](Cc3ccccc3)NC(=O)[C@H](Cc3ccccc3)NC(=O)CCC(=O)NCCCCCC(=O)N(CCCC[C@H](NC(=O)N[C@@H](CCC(=O)O)C(=O)O)C(=O)O)Cc3ccc(C(=O)O)cc3)nn2)C(C)C)cc1)C(C)C [12d] ({X5-Ahx-Suc}-FFK[X2]V[Cit][PABC][NMeV]V[Dil][Dolaproine]-X1)	–	–	197.8 ± 2.7 nM	463.3 ± 8.0 nM	>800 nM
NCCCC[C@H](NC(=O)N[C@@H](CCC(=O)O)C(=O)O)C(=O)O [DCL, (S)-2-(3-((S)-5-amino-1-carboxypentyl)ureido)pentanedioic acid, reference compound]	–	547 ± 389 nM	–	–	–
C[C@]12CC[C@H](OC(=O)CCCc3cn(CCCNC(=O)[C@H](Cc4ccc(O)cc4)NC(=O)[C@H](Cc4ccccc4)NC(=O)CCC(=O)NCCCCCC(=O)N(CCCC[C@H](NC(=O)N[C@@H](CCC(=O)O)C(=O)O)C(=O)O)Cc4cccc(Cl)c4)nn3)CC1=CC[C@@H]1[C@@H]2CC[C@]2(C)C(c3cccnc3)=CC[C@@H]12 [II, reference compound]	–	–	>800 nM	>800 nM	>800 nM

Source: publication PMC10380083, “Synthesis of Prostate-Specific Membrane Antigen-Targeted Bimodal Conjugates of Cytotoxic Agents and Antiandrogens and Their Comparative Assessment with Monoconjugates” (International Journal of Molecular Sciences, 2023)
